The text below walks through data of PMC6949951, “α-Glucosidase Inhibition and Molecular Docking Studies of Natural Brominated Metabolites from Marine Macro Brown Alga Dictyopteris hoytii” (Marine Drugs, 2019).

Read-outs that look alike come from different tables or passages of the source.

The experiment has as its target α-Glucosidase (E.C.3.2.1.20) enzyme (Saccharomyces cerevisiae) (Saccharomyces cerevisiae, UniProt P53341). Description: biochemical. It counts as biochemical. Here is the method: α-Glucosidase (E.C.3.2.1.20) enzyme (Saccharomyces cerevisiae) inhibition activity was carried out by using previously described method. The enzyme (0.2 μ/mL) solution in phosphate buffered saline (PBS) (0.1 M, pH 6.8) with different concentrations of tested compounds (1, 0.5, 0.25, 0.125, 0.0625 and 0.0312 mM) at 37 °C were incubated for 15 min. After incubation, 0.7 mM p-nitrophenyl-α-D-glucopyranoside (a chromogenic substrate) was added and the change in absorbance was recorded at 400 nm for 30 min by microplate spectrophotometer (xMark™, BIO-RAD, California, LA, United States) per production of p-nitrophenyl. Al the isolated compounds were dissolve in DMSO (7.5% final) along with control. […] The IC50 values were calculated by using different concentrations of tested compounds. The results were processed by MS-Excel and Ez-fit software programs. The % inhibition was calculated by using the following formula:% Inhibition = 100 −(OD test well/OD control) × 100.

Setting [1] is: IC50 (Table 2, repeated beside docking results), S. cerevisiae α-glucosidase.
[2] abbreviates: α-Glucosidase inhibitory activity IC50, tested up to 1.0 mM, PBS pH 6.8, 37 °C, NA = not active.
Where [3] appears, read: tested up to 1.0 mM, PBS pH 6.8, 37 °C, NA = not active, read-out: α-Glucosidase inhibitory activity IC50.
Where [4] appears, read: S. cerevisiae α-glucosidase, read-out: IC50 (Table 2, repeated beside docking results).

Chain of α-Glucosidase (E.C.3.2.1.20) enzyme (Saccharomyces cerevisiae) (P53341 whole entry): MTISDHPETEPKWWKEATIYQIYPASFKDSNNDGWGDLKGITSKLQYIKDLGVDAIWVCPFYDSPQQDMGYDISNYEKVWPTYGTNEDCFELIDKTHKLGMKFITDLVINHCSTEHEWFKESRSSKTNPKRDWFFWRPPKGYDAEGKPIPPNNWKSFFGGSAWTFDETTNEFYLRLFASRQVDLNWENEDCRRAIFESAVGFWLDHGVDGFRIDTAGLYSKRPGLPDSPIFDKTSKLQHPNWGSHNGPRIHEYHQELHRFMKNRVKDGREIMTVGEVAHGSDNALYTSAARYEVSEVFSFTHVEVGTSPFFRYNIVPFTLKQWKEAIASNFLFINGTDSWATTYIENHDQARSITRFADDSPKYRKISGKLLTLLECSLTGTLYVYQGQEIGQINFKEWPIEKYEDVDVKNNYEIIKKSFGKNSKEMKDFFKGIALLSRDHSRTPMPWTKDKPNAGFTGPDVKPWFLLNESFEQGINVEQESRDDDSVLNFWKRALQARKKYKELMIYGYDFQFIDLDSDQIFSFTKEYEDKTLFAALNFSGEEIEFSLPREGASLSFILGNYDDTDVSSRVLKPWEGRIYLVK

As for `C/C=C(\CC[C@@H](C)[C@H]1CC[C@H]2[C@@H]3CC=C4C[C@@H](O)CC[C@]4(C)[C@H]3CC[C@]12C)C(C)C` [Compound 3, Fucosterol], the IC50 is, setting by setting: under setting [1], 289 µM; under setting [2], 289 ± 4.91 µM. As for `CCOC(=O)c1ccc(C(=O)OCC)c(Br)c1` [Compound 2, Diethyl 2-bromobenzene 1,4-dioate], the midpoint of inhibition, the IC50, lay at 234 µM. Also, the IC50 under setting [2] was approximately 234 µM. For `CCCCCCCCC=CCCCCCCCCCC(=O)O` [Compound 8, 11-Eicosenoic acid], half-maximal inhibition under setting [1] (IC50) was put at 480 µM and the IC50 under setting [2] was determined as 480 µM.

`CCCCCCCCCCCCCCCCCCC=CCCCCCCCC(=O)O` [Compound 7, n-Octacos-9-enoic acid]: the IC50 under setting [3] came to 30.5 ± 0.41 µM. For the compound `CCCCCCCCCCCCCCCC(=O)OC` [Compound 4, n-Hexadecanoic acid, methyl ester], the “α-glucosidase inhibition in words” value (in vitro) was “inactive”. For `CCCCCCCCCCCCCCCCCCCCCCCCCC(=O)O` [Compound 6, Cerotic acid], the concentration for half-maximal inhibition (IC50) runs as follows: under setting [4], 660 µM; under setting [3], 659.8 ± 2.15 µM.

Regarding “Ethyl methyl 2-bromobenzene 1,4-dioate [Compound 1]”, the IC50 under setting [4] was 522 µM and the IC50 under setting [3] is 522 ± 0.51 µM.
